Four compounds from patent publication EP0290169A2, “Diamineplatinum complexes with phosphonocarboxylate and substituted phosphonocarboxylate ligands as antitumor agents” (ENGELHARD CORPORATION, priority 1987, dated 1988) can be followed below.

Series [1] in a line: Toxicity testing: BUN (kidney toxicity). Format: in vivo, mice. The conditions noted are these: for BUN: change vs. controls. As to the method:
(§1) (PVA = 2-phosphonovalerate). Based on the screening results, initial dosing was established at approximately twice the peak active dose in the SI80 screen. […] WBC was measured by lysing the red blood cells with 3% acetic acid and counting the white cells using a haemocytometer.
(§2) Data obtained for Na[Pt(trans-R,R-dach)(PVA)] was taken at 240 mg/kg. […] Average cage weights for the test mice were also taken over the seven day test period.

The nature of series [2]: Toxicity testing: WBC (myelosuppression). The conditions noted are these: for WBC: change vs. controls. Format: in vivo, mice. As to the method:
as §1, §2

Series [3] in a line: Toxicity testing: hematocrit and average cage weights. Format: in vivo, mice. The settings on record: 240 mg/kg. As to the method: (PVA = 2-phosphonovalerate). Based on the screening results, initial dosing was established at approximately twice the peak active dose in the SI80 screen. Both a cisplatin control, also run at twice the peak active dose, and a negative control experiment, were run for comparative purposes. BUN was measured by using a kit manufactured by Harleco (No. 64667). WBC was measured by lysing the red blood cells with 3% acetic acid and counting the white cells using a haemocytometer.
Data obtained for Na[Pt(trans-R,R-dach)(PVA)] was taken at 240 mg/kg. […] Myelosuppresion however, was apparent. The WBC depression for this compound was 63% relative to controls. […] Average cage weights for the test mice were also taken over the seven day test period. The mice lost an average of 5.9 g (27.3%) of body weight over this time.

Another series concerns L1210 leukemia. Briefly: L1210 screening (L1210 leukemia tumor model), increase in life span. Format: in vivo, Female CDF1 mice. The procedure:
Female CDF1 mice (16-22 g) are injected with a suspension of 1 x 10^6 tumor cells in 0.5 mL of 0.15 M saline on day zero. On day one, the mice receive the test compound in 0.5 mL of the chosen medium (usually water). Six mice were used for each test dose, with six doses normally being run. Normal controls (six mice) receive tumor on day zero and 0.5 mL of the test medium on day one. Positive controls (six mice) receive tumor on day zero and 8 mg/kg cisplatin in 0.5 mL of 0.15 M saline on day one. All compound doses are adjusted for the actual average weight of the mice involved. Testing is terminated at three times the normal control mean life span. The percent increase in lifespan (ILS) is calculated as follows: %ILS = [(mean life span (test)/mean life span(control)-I]x100 A 25% ILS or greater indicates activity. The maximum possible ILS is 200%. The positive control must have an ILS of S 25% for the test to be considered valid.
The tumor line is maintained by transfer of 5 x 10^4- cells in 0.1 mL saline every seven days. DBA/2 (18-22 g) mice are employed for tumor transfers

Another series has as its system Sarcoma 180 ascites. Briefly: S180a screening (Sarcoma 180 ascites tumor model), increase in life span. Format: in vivo, CFW mice. The conditions noted are these: for Surv.: survivors on day of evaluation. As to the method: CFW mice, averaging 20 g, are innoculated on day zero with 0.2 mL of a freshly prepared saline suspension (0.15 M NaCI) containing 1 × 10^7 tumor cells/mL, or a total of 2 x 10^6 cells. On day I, the mice are injected with the test compound in the selected medium (usually water). Six mice are used per test dose, with six doses normally being run.
Also, on day one, two types of controls (6 mice/set are employed: (1) Normal (1 set): 0.5 mL of the solvent medium used for the test compound, and (2) Positive control (1 set): cis-[Pt(NH3)2Cl2] in saline at 8 mg/kg.
The effectiveness of a compound is measured in terms of the increase in life span (ILS) of the test animals relative to the controls calculated from the day of tumor inoculation (day zero). The day of evaluation is arbitrarily taken as that day corresponding to twice the mean life-span of the normal controls. This sets a practical upper limit of 100% on the ILS attainable. For calculation purposes, survivors on the day of evaluation are considered to have died on that day. The % ILS is formulated as: [formula]
ILS values above 50% represent activity. The positive controls must have an ILS of ≧ 50% for the test to be valid.

[4] abbreviates: dose 10.00 mg/kg on day 1, vehicle water.
Where [5] appears, read: dose 10.00 mg/kg on day 1, vehicle water, survivors.
[6] abbreviates: dose 20.00 mg/kg on day 1, vehicle water.
Where [7] appears, read: dose 20.00 mg/kg on day 1, vehicle water, survivors.
Where [8] appears, read: dose 40.00 mg/kg on day 1, vehicle water.
Where [9] appears, read: dose 40.00 mg/kg on day 1, vehicle water, survivors.
Where [10] appears, read: dose 80.00 mg/kg on day 1, vehicle water.
Setting [11] is: dose 80.00 mg/kg on day 1, vehicle water, survivors.
Setting [12] is: dose 160.00 mg/kg on day 1, vehicle water.
Where [13] appears, read: dose 160.00 mg/kg on day 1, vehicle water, survivors.
[14] abbreviates: dose 320.00 mg/kg on day 1, vehicle water.
The mark [15] stands for this setting: dose 320.00 mg/kg on day 1, vehicle water, survivors.

Values joined by “and” are separate entries in the source; they are usually repeats but may differ in a detail not shown here. Equal entries are not always repeated.

In the case of `CCCC1C(=O)[O][Pt][O]P1(=O)[O-].NC1CCCCC1N.[Na+]` (mixture of isomers) [Ex 18, Na[Pt(trans-R,R-dach)(2-phosphonovaierate)]], in series [1] (240 mg/kg), the “BUN decrease vs. controls” value stood at 4%. Further, the “average BUN level” value in series [1] (240 mg/kg, test mice) is listed as 34.7 mg/dL. Moreover, the BUN in series [1] (dose 240 mg/kg) is listed as -4%. In addition, the kidney toxicity entry in series [1] (judged from BUN elevation) is “not kidney toxic at this dose”. In addition, in series [2] (240 mg/kg), the “WBC depression relative to controls” value amounted to 63%. The WBC in series [2] (dose 240 mg/kg) was -63%. Also, the “hematocrits (ratio of packed red blood cells to volume of whole blood)” value in series [3] was “low hematocrits”. In addition, the “%ILS” value came to 36% in the series with L1210 leukemia (setting [4]); 25% in the series on L1210 leukemia (setting [6]); 33% in the series on L1210 leukemia (setting [8]); 33% in the series with L1210 leukemia (setting [10]); 109% with L1210 leukemia (setting [12]); 24% in the series with L1210 leukemia (setting [14]). Further, the “%ILS” value was found to be 77% in the series with Sarcoma 180 ascites (setting [8]), 92% in the series with Sarcoma 180 ascites (setting [10]) and 44% with Sarcoma 180 ascites (setting [12]). The Surv. with L1210 leukemia (setting [5]) is 0/ 6; in the series on L1210 leukemia (setting [7]), 0/ 6; in the series with L1210 leukemia (setting [9]), 0/ 6; in the series with L1210 leukemia (setting [11]) it was 0/ 6; in the series on L1210 leukemia (setting [13]), 0/ 6; in the series with L1210 leukemia (setting [15]), 1/ 6. Moreover, the Surv. is 1/ 6 in the series with Sarcoma 180 ascites (setting [8]), 5/ 6 with Sarcoma 180 ascites (setting [10]) and 1/ 6 in the series with Sarcoma 180 ascites (setting [12]).

Consider `N[C@@H]1CCCC[C@H]1N.O=C1[O][Pt][O]P1(=O)[O-].[Na+]` [Ex 20, Na[Pt(trans-R,R-dach)(phosphonoformate)]], for which the “%ILS” value in the series on L1210 leukemia (setting [4]) is listed as -17%; with L1210 leukemia (setting [6]), -20%; in the series with L1210 leukemia (setting [8]), -14%; in the series with L1210 leukemia (setting [10]), -7%; in the series on L1210 leukemia (setting [12]), 11%; in the series on L1210 leukemia (setting [14]), 20%. Besides, the “%ILS” value is reported as 6% in the series with Sarcoma 180 ascites (setting [4]); -5% in the series with Sarcoma 180 ascites (setting [6]); 7% in the series with Sarcoma 180 ascites (setting [8]); 18% in the series on Sarcoma 180 ascites (setting [10]); 59% in the series on Sarcoma 180 ascites (setting [12]); 55% in the series on Sarcoma 180 ascites (setting [14]). The Surv. in the series with L1210 leukemia (setting [5]), with L1210 leukemia (setting [7]), with L1210 leukemia (setting [9]), in the series on L1210 leukemia (setting [11]), in the series with L1210 leukemia (setting [13]) and with L1210 leukemia (setting [15]) was 0/ 6 in each case. Besides, the Surv. in the series on Sarcoma 180 ascites (setting [4]), in the series on Sarcoma 180 ascites (setting [6]), in the series on Sarcoma 180 ascites (setting [8]), in the series on Sarcoma 180 ascites (setting [10]), with Sarcoma 180 ascites (setting [12]) and in the series with Sarcoma 180 ascites (setting [14]) was 0/ 6 each time.

As to “Na[Pt(trans-R, R-dach)(2-phosphono-1,7-heptanedicarboxylate)] [Ex 23]”, the “%ILS” value is 59% with L1210 leukemia (setting [4]); 67% in the series with L1210 leukemia (setting [6]); 88% in the series with L1210 leukemia (setting [8]); 133% with L1210 leukemia (setting [10]); 161% in the series with L1210 leukemia (setting [12]); -32% in the series on L1210 leukemia (setting [14]). The “%ILS” value in the series on Sarcoma 180 ascites (setting [4]) is 20%; in the series on Sarcoma 180 ascites (setting [6]), 31%; in the series on Sarcoma 180 ascites (setting [8]) it was 45%; in the series on Sarcoma 180 ascites (setting [10]) it was 86%; in the series on Sarcoma 180 ascites (setting [12]) it was 34%; in the series with Sarcoma 180 ascites (setting [14]) it was -37%. Further, the Surv. in the series on L1210 leukemia (setting [5]) is recorded as 0/ 6; in the series with L1210 leukemia (setting [7]), 0/ 6; in the series on L1210 leukemia (setting [9]) it was 0/ 6; in the series on L1210 leukemia (setting [11]) it was 3/ 6; in the series on L1210 leukemia (setting [13]), 3/ 6; in the series with L1210 leukemia (setting [15]), 0/ 6. Further, the Surv. is 0/ 6 in the series with Sarcoma 180 ascites (setting [4]); 0/ 6 in the series with Sarcoma 180 ascites (setting [6]); 2/ 6 in the series on Sarcoma 180 ascites (setting [8]); 4/ 6 with Sarcoma 180 ascites (setting [10]); 4/ 6 in the series on Sarcoma 180 ascites (setting [12]); 1/ 6 with Sarcoma 180 ascites (setting [14]).

Consider “cis-[Pt(NH3)2Cl2] [Cisplatin, reference compound]”, for which the BUN entry in series [1] (dose 15 mg/kg) is “+98%”. The WBC in series [2] (dose 15 mg/kg) is on record as -7%. In addition, the “POS. CONT. Surv.” value with L1210 leukemia (positive control of the same test: 8 mg/kg cisplatin in 0.15 M saline on day 1, survivors, listed as POS. CONT.) is 0/ 6 and 1/ 6 and 3/ 6 and 2/ 6; in the series on Sarcoma 180 ascites (positive control of the same test: cis-[Pt(NH3)2Cl2] in saline at 8 mg/kg on day 1, survivors, listed as POS. CONT., 8 mg/kg), 4/ 6 and 3/ 6 and 2/ 6 and 1/ 6. Further, the “POS. CONT. %ILS” value in the series on Sarcoma 180 ascites (positive control of the same test: cis-[Pt(NH3)2Cl2] in saline at 8 mg/kg on day 1, listed as POS. CONT., 8 mg/kg) was 89% and 85% and 70% and 55% and 94% and 74% and 86% and 68%.
